# Source: US20010006794A1, “SCREENING FOR MODULATORS OF BIOMOLECULES” (priority 1995, published 2001)
# Experiments:
# [1] = tested on: Salmonella typhimurium wild type; type: cell-based
# Description: Preliminary characterization of the utilization of large numbers of carbon sources can be carried out using manual or automated taxonomic screening devices, such as the Biolog MT, ES, GN or GP Microplate™. Alternatively, this can be performed using commercially available components. […] Briefly, strains were swabbed onto TSA plates and grown at a permissive temperature of 30° C. for 6 hours to provide an inoculum. The inoculum (MacFarland standard ˜1 in 0.89% sterile saline solution) was prepared as per Biolog “Instructions for Use” handbook, with the exception that leucine was added to correct for mutants housed in strains which were in a leucine-deficient background. Inoculum was added to Biolog GN or ES plates and incubated at the semipermissive temperature of 35° C. overnight (˜21 hr). Carbon source utilization is read colorimetrically in a microplate reader at 600 nm. Substrates that are not used similarly by wild-type and mutant are identified. […] Typically, these steps were performed using Biolog MT plates or by using a redox indicator (such as tetrazolium violet, 0.0001%) in a minimal medium with a sole carbon source (substrate being tested), supplemented with a small amount of tryptone (0.06%) or proteose peptone (0.2%). It was possible to do this in 96-well microtiter plate format, which will be adaptable to high throughput or multichannel screening.
# [2] = tested on: Salmonella typhimurium temperature sensitive mutant gyrA212 (strain 7533); type: cell-based
# From the text: A Salmonella typhimurium parent strain 7389 was used to form a collection of temperature sensitive mutants. […] Complementation of the mutant phenotype was done. In the case of the three mutants described in the data of this figure (gyrA202, gyrA208, gyrA212) the complemented mutants were identified to be in the A subunit of the bacterial DNA gyrase enzyme. Each mutant was altered in a different portion (see number of mutant) of the A subunit. […] The data are expressed as fold increases in susceptibility. A four-fold increase in susceptibility is the minimum change to be considered significant in this example.
# Referring to FIG. 1, the experiments were essentially by the methods outlined by the National Committee for Clinical Laboratory Standards (NCCLS). Bacteria were grown in Mueller-Hinton (MH) broth with agitation at 30° C.
# The antibiotic dilution ranges used were:
# Novobiocin: Range 128-0 μg/ml. Coumermycin A1: Range 128-0 μg/ml. […] Norfloxacin: Range 8-0 μg/ml. Mitomycin C: Range 8-0 μg/ml Phenylmercuric acetate: Range 32-0 μg/ml. 4-Nitroquinoline Oxide: Range 32-0 μM Rifampicin: Range 128-0 μg/ml. Gentamicin: Range 32-0 μg/ml. Streptomycin: Range 128-0 μg/ml. Cefotaxime: Range 8-0 μg/ml. Ampicillin: Range 32-0 μg/ml. Phosphonomycin (or fosfomycin): Range 128-0 μg/ml. […]
# [3] = wild type with sub-MIC levels of antibiotic
# [4] = wild type with sub-MIC levels of antibiotic, Biolog GN plates, 35° C.
smiles,measurement,setting,value
Cn1nnnc1SCC1=C(C(=O)O)N2C(=O)[C@@H](NC(=O)[C@H](O)c3ccccc3)[C@H]2SC1 [cefamandole],utilization of D-alanine or D-serine as carbon source markers,"[1]; wild type strain, sub-MICs of cell wall synthesis inhibitor",affected
same,overlap of carbon source utilization phenotype with the gyraseA/ciprofloxacin induced phenotype,[1]; [3],40%
O=C(N[C@H](CO)[C@H](O)c1ccc([N+](=O)[O-])cc1)C(Cl)Cl [chloramphenicol],overlap of carbon source utilization phenotype with the gyraseA/ciprofloxacin induced phenotype,[1]; [3],40%
O=C(O)c1cn(C2CC2)c2cc(N3CCNCC3)c(F)cc2c1=O [ciprofloxacin],carbon source utilization phenotype compared with one of the gyraseA mutant alleles,[1]; [4],reproduces the phenotype of one of the mutant alleles perfectly
same,overlap of carbon source utilization phenotype with the other two gyraseA mutant alleles,[1]; [4],46-71%
CCn1cc(C(=O)O)c(=O)c2cc(F)c(N3CCNCC3)cc21 [norfloxacin],fold increase in susceptibility,[2],8 fold
CO[C@@H]1[C@@H](OC(N)=O)[C@@H](O)[C@H](Oc2ccc3c(O)c(NC(=O)c4ccc(O)c(CC=C(C)C)c4)c(=O)oc3c2C)OC1(C)C [novobiocin],carbon source utilization phenotype compared with gyraseA mutants and the ciprofloxacin induced phenotype,[1]; [3],very similar phenotype
